This passage reports GI50 and TGI results from PubChem BioAssay (NCI).

One may read the GI50 as the concentration that inhibits growth by half. What is called TGI is the concentration at which net growth stops. A high value points to lower sensitivity of the cells.

Assay in all cases: DTP human tumour cell line panel, 48 h
The subject of test [1] is HCT-116 colon.
In test [2] the test system is RXF 393 renal.
Test [3] concerns SW-620 colon.
Test [4] relates to 786-0 renal.
Test [5] relates to BT-549 breast.
Test [6] relates to UACC-257 melanoma.
The subject of test [7] is SF-539 CNS.
The test system of test [8] is MOLT-4 leukemia.
For test [9], the system named is TK-10 renal.
For test [10], the system named is MALME-3M melanoma.

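Assay format: 96-well plates, 48-hour exposure. Here, GI50 denotes the concentration required for 50% inhibition of growth. TGI: concentration producing complete growth inhibition.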 A value given as a limit tells only on which side of the number the result lay.

As for `COc1ncnc(NS(=O)(=O)c2ccc(N=C3C(=O)N(CN4CCN(c5c(F)cc6c(=O)c(C(=O)O)cn(C7CC7)c6c5OC)CC4C)c4ccc(Cl)cc43)cc2)c1OC` (configuration not stated), the GI50 is 11.5 µM in [1]; 10.8 µM in [2]; 10.7 µM in test [3]; 21.4 µM in test [4]; 20.6 µM in test [5]; 6.32 µM in [6]. The GI50 in test [7] was 16.8 µM; in test [8], > 50 µM. In addition, the TGI in test [1] is > 50 µM; in test [2], 39.6 µM; in test [3] it was > 50 µM; in test [4], > 50 µM; in [5], > 50 µM; in test [6], 14.7 µM. The TGI in [7] and in test [8] was > 50 µM each time.
Regarding `O=C(Nc1ccc(Cl)cc1)c1cccc(NC2=C(Cl)C(=O)N(Cc3ccccc3)C2=O)c1`, the GI50 in test [1] is 6.29 µM; in test [9], 14.3 µM; in test [3], 16.3 µM; in test [4], 7.83 µM; in test [5] it was 2.16 µM; in test [6], 15 µM. For the same compound, the GI50 in test [7] is 4.18 µM; in [8], 12.1 µM. In addition, the TGI stood at 19.7 µM in [1]; 30.7 µM in [9]; 43.6 µM in test [3]; 20.9 µM in [4]; 13.2 µM in test [5]; 43.3 µM in test [6]. Further, the TGI in test [7] stood at 19.1 µM; in test [8], 24.5 µM.
Consider `Cc1cccc(NC(=O)Cn2cnc3sc(C(=O)OC(C)C)c(C)c3c2=O)c1`, for which the GI50 was 15.6 µM in test [1]; 7.1 µM in test [2]; 16.7 µM in test [9]; 33.5 µM in test [3]; 32.9 µM in test [4]; 8.21 µM in test [5]. Also, the figures for the GI50 in test [6], in [7] and in [8] were 19 µM, 8.77 µM and > 50 µM, respectively. For the same compound, the TGI was > 50 µM in test [1]; 22.7 µM in test [2]; > 50 µM in [9]; > 50 µM in test [3]; > 50 µM in test [4]; 25.2 µM in [5]. In addition, the results for the TGI in test [6], in test [7] and in [8] were > 50 µM, 21.5 µM and > 50 µM, respectively.
In the case of `Cc1ccc(S(=O)(=O)Nc2ccccc2C(=O)c2ccc(C)c(C)c2)cc1`, the TGI in [1], in [2], in test [9], in test [3], in test [10] and in test [4] was > 100 µM each time. The concentration for total growth inhibition (TGI) in [5], in test [6] and in test [7] was > 100 µM throughout.
Consider `CCCCCCCC(=O)SCC/C=C/[C@@H]1CC(=O)NCc2cc(ccn2)C2=N[C@@](C)(CS2)C(=O)N[C@@H](C(C)C)C(=O)O1`, for which the GI50 in test [1] was 0.00468 µM; in test [2] it was 0.0128 µM; in [9], < 0.0141 µM; in test [3], 0.0749 µM; in [10] it was 0.00864 µM; in test [4], 0.0291 µM. The concentration for 50% growth inhibition (GI50) was 0.0432 µM in test [5], 0.0203 µM in test [7] and 0.0133 µM in [8]. In addition, the concentration for total growth inhibition (TGI) in test [1] was 0.0466 µM; in test [2], 0.0822 µM; in test [9], 0.173 µM; in test [3], 2.49 µM; in test [10] it was > 33.3 µM; in test [4] it was > 33.3 µM. The TGI in test [5] was > 33.3 µM; in test [7] it was > 33.3 µM; in test [8], > 28.7 µM.
Consider `ClCc1cccc(Cn2cnc3ncnc(Cl)c32)c1`, for which the GI50 is 1.78 µM in test [1]; 2.02 µM in test [2]; 1.76 µM in [9]; 15.2 µM in test [3]; 2.06 µM in test [4]; 13.1 µM in test [5]. The GI50 in [6] was 1.96 µM; in [7] it was 19.9 µM; in test [8], 10.6 µM. Moreover, the concentration for total growth inhibition (TGI) came to 5.21 µM in test [1]; 17.4 µM in [2]; 3.3 µM in test [9]; 32.2 µM in [3]; 4.09 µM in test [4]; 28.6 µM in [5]. Also, the total growth inhibition concentration (TGI) in test [6] was 5.52 µM; in test [7], 36 µM; in test [8] it was 29.4 µM.
In the case of `COc1cc(C2c3cc4c(cc3OC(C)(O)C2C)OCO4)cc(OC)c1OC` (configuration not stated), the concentration for total growth inhibition (TGI) in [1] is 75.2 µM; in test [3] it was > 100 µM; in [10] it was > 100 µM; in test [4], > 100 µM; in [5], > 100 µM; in [6], > 100 µM. Besides, the TGI in test [7] is 0.888 µM; in [8], 25.9 µM.
On to `O=S(=O)(CCn1c(Sc2ccccc2)c(Sc2ccccc2)c2ccccc21)c1ccccc1`, for which the TGI in test [1], in [9], in test [3], in test [10], in test [4] and in test [5] was > 100 µM each time. Moreover, the TGI in [7] and in test [8] was > 100 µM throughout.
Consider `OCC#Cc1ccccc1C#Cc1ccccc1`, for which the GI50 in test [1] was 15.3 µM; in [9], 13.6 µM; in test [3], 20 µM; in test [4], 14.6 µM; in test [5] it was 13.2 µM; in [6], 16.2 µM. The GI50 in [8] was 3.95 µM. Moreover, the TGI was 28.6 µM in [1]; 26.6 µM in test [9]; 43.6 µM in [3]; 27.7 µM in test [4]; 27.8 µM in [5]; 32 µM in test [6]. The TGI in test [8] is > 100 µM.
On to `Cc1c2c(nn1-c1ccc(S(=O)(=O)/N=C3\SCCC(=O)N3c3ccccc3)cc1)-c1ccccc1CC2`, for which the GI50 in [1] is > 100 µM; in test [2] it was 70.9 µM; in [9], > 100 µM; in test [4] it was 81.7 µM; in [5] it was > 100 µM; in test [6], > 100 µM. For the same compound, in test [8], the GI50 is > 100 µM. The concentration for total growth inhibition (TGI) in test [1], in test [2], in test [9], in [4], in test [5] and in test [6] was > 100 µM each time. The TGI in [8] is > 100 µM.
`Cc1cc(-c2ccc3nc(C4CCOCC4)n(CCOC(F)(F)F)c3c2)cn(C)c1=O`: the concentration for total growth inhibition (TGI) in test [1] was 14.8 µM; in [2], 6.34 µM; in [9] it was 4.64 µM; in test [3], 33.3 µM; in test [10], 5.16 µM; in test [5], > 80.4 µM. In [8], this compound registered a concentration for total growth inhibition (TGI) of 17.5 µM. Also, the GI50 in test [2] was 0.885 µM; in [3], 1.79 µM; in test [4], 1.03 µM; in test [5], 3.99 µM; in test [8], 0.588 µM.
With `N#CC(C#N)=CNC(N)=S`, the total growth inhibition concentration (TGI) in test [1], in [2], in [3], in test [10], in test [4] and in test [5] was > 100 µM each time. The TGI in test [6], in test [7] and in test [8] was > 100 µM throughout.
As for `O=C(/C=C/c1ccc(Cl)cc1)c1ccc(Nc2ccnc3cc(Cl)ccc23)cc1`, the GI50 was 10.7 µM in test [2]; > 84.7 µM in test [9]; 6.05 µM in [3]; > 100 µM in [10]; 38.1 µM in test [4]; 29.3 µM in [5]. The GI50 in test [6] is > 100 µM; in [7] it was > 63.3 µM; in test [8], 5.46 µM. Moreover, the TGI in test [2] was > 83.8 µM; in [9], > 100 µM; in [3] it was > 67.5 µM; in [10], > 100 µM; in test [4], > 100 µM; in [5], > 100 µM. Further, the total growth inhibition concentration (TGI) in test [6], in [7] and in test [8] was > 100 µM each time.
Turning to `COc1cc(/C=C2\CN(S(=O)(=O)c3ccccc3)C/C(=C\c3cc(CN4CCCC4)c(O)c(OC)c3)C2=O)cc(CN2CCCC2)c1O`, the GI50 in [2] was 1.27 µM; in test [9], 3.18 µM; in [4] it was 1.86 µM; in test [5], 1.99 µM; in [7], 1.64 µM. Also, the concentration for total growth inhibition (TGI) in test [2] turned out to be 2.8 µM; in [9], 7.73 µM; in [4], 4.32 µM; in test [5], 5.14 µM; in test [7] it was 3.31 µM.
Consider `CCOC(=O)c1cc2nc3ccccc3c(=O)n2c2ccccc12`, for which the total growth inhibition concentration (TGI) in test [1], in test [2], in test [9], in [3], in test [10] and in [4] was > 10 µM in each case. For the same compound, the total growth inhibition concentration (TGI) in test [5], in test [6] and in test [7] was > 10 µM throughout.
